From patent US10703764B2, “Benzopiperazine compositions as BET bromodomain inhibitors” (FORMA Therapeutics, Inc., priority 2013, dated 2020)

Experiments:
[1] = target: T1, BRD4 BD1 (Homo sapiens, UniProt O60885); assay: AlphaScreen binding assay, BRD4 Bromodomain 1
T1 construct: made in house
Outline: (§1)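 An AlphaScreen competition format was used with His-BRD4 BD1 or BD2 and biotin-H4 K5/8/12/16-acetyl peptide, each at matched final levels of 50 nM (BD1) or 100 nM (BD2). Incubation in HEPES/NaCl buffer with 0.1% BSA and 0.01% Triton X-100 ran ≥1 h before IC50 determination.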

[2] = test system: MV4-11 cells; assay: Oncology cell growth assay (3-day proliferation, CellTiter-Glo); format: cell-based; conditions: Homo sapiens, MV4-11, 72 h, AML cell line MV4-11, 72 hours, compounds grouped by IC50 range, read-out: MV4-11 IC50 (inhibition of proliferation, gIC50)
Outline: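 MV4-11 AML cells (RPMI 1640, 10% FBS) plated at 3000 cells/well and exposed 72 h to compound at final 10 to 0.0045 μM (3-fold series). Viability read by CellTiter-Glo luminescence; gIC50 from four-parameter logistic fit between DMSO control and no-cell background.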

[3] = target: T2, BRD4 BD2 (Homo sapiens, UniProt O60885); assay: AlphaScreen binding assay, BRD4 Bromodomain 2
T2 construct: made in house
Outline: as §1

Structure (SMILES)	IC50 [1] [µM]	IC50 [2] [µM]	IC50 [3] [µM]
CC(=O)N1c2ccc(-c3cccc(S(N)(=O)=O)c3)cc2N(C(=O)C2CC2)C[C@@H]1C [Example I-1039]	1 to 10	0.1 to 0.5	< 0.05
CC(=O)N1c2ccc(-c3cccc(S(N)(=O)=O)c3)cc2N(C(=O)C2CCC2)C[C@@H]1C [Example I-1040]	1 to 10	0.1 to 0.5	< 0.05
CCOC(=O)N1C[C@H](C)N(C(C)=O)c2ccc(-c3cccc(S(N)(=O)=O)c3)cc21 [Example I-1041]	1 to 10	0.1 to 0.5	0.05 to 0.5
CC(=O)N1c2ccc(-c3cccc(S(N)(=O)=O)c3)cc2N(C(=O)OC(C)C)C[C@@H]1C [Example I-1042]	1 to 10	0.1 to 0.5	0.05 to 0.5
CC(=O)N1c2ccc(-c3cccc(NS(C)(=O)=O)c3)cc2N(C(=O)C2CC2)C[C@@H]1C [Example I-1043]	1 to 10	> 0.5	0.05 to 0.5
CC(=O)N1c2ccc(-c3cccc(NS(C)(=O)=O)c3)cc2N(C(=O)C2CCC2)C[C@@H]1C [Example I-1044]	1 to 10	> 0.5	0.05 to 0.5
CCOC(=O)N1C[C@H](C)N(C(C)=O)c2ccc(-c3cccc(NS(C)(=O)=O)c3)cc21 [Example I-1045]	1 to 10	> 0.5	0.05 to 0.5
CC(=O)N1c2ccc(-c3cccc(S(=O)(=O)N(C)C)c3)cc2N(C(=O)C2CC2)C[C@@H]1C [Example I-1046]	1 to 10	> 0.5	0.05 to 0.5
CC(=O)N1c2ccc(-c3cccc(S(=O)(=O)N(C)C)c3)cc2N(C(=O)C2CCC2)C[C@@H]1C [Example I-1047]	1 to 10	> 0.5	0.05 to 0.5
CCOC(=O)N1C[C@H](C)N(C(C)=O)c2ccc(-c3cccc(S(=O)(=O)N(C)C)c3)cc21 [Example I-1048]	1 to 10	> 0.5	0.05 to 0.5
CC(=O)N1c2ccc(-c3cccc(S(=O)(=O)N(C)C)c3)cc2N(C(=O)OC(C)C)C[C@@H]1C [Example I-1049]	1 to 10	0.1 to 0.5	0.05 to 0.5
CC(=O)N1c2ccc(-c3cccc(S(C)(=O)=O)c3)cc2N(C(=O)C2CC2)C[C@@H]1C [Example I-1050]	1 to 10	> 0.5	0.05 to 0.5
CC(=O)N1c2ccc(-c3cccc(S(C)(=O)=O)c3)cc2N(C(=O)C2CCC2)C[C@@H]1C [Example I-1051]	1 to 10	> 0.5	0.05 to 0.5
CCOC(=O)N1C[C@H](C)N(C(C)=O)c2ccc(-c3cccc(S(C)(=O)=O)c3)cc21 [Example I-1052]	1 to 10	> 0.5	0.05 to 0.5
CC(=O)N1c2ccc(-c3cccc(S(C)(=O)=O)c3)cc2N(C(=O)OC(C)C)C[C@@H]1C [Example I-1053]	1 to 10	0.1 to 0.5	0.05 to 0.5
CCS(=O)(=O)Nc1cccc(-c2ccc3c(c2)N(C(=O)C2CC2)C[C@H](C)N3C(C)=O)c1 [Example I-1054]	1 to 10	0.1 to 0.5	0.05 to 0.5
CCS(=O)(=O)Nc1cccc(-c2ccc3c(c2)N(C(=O)C2CCC2)C[C@H](C)N3C(C)=O)c1 [Example I-1055]	1 to 10	> 0.5	0.05 to 0.5
CCOC(=O)N1C[C@H](C)N(C(C)=O)c2ccc(-c3cccc(NS(=O)(=O)CC)c3)cc21 [Example I-1056]	1 to 10	> 0.5	0.05 to 0.5
CC(=O)N1c2ccc(-c3ccc(N4CCOCC4)cc3)cc2N(C(=O)C2CC2)C[C@@H]1C [Example I-1058]	1 to 10	0.1 to 0.5	0.05 to 0.5
CC(=O)N1c2ccc(-c3ccc(N4CCOCC4)cc3)cc2N(C(=O)C2CCC2)C[C@@H]1C [Example I-1059]	1 to 10	0.1 to 0.5	0.05 to 0.5
CCOC(=O)N1C[C@H](C)N(C(C)=O)c2ccc(-c3ccc(N4CCOCC4)cc3)cc21 [Example I-1060]	1 to 10	> 0.5	0.05 to 0.5
CC(=O)N1c2ccc(-c3ccc(N4CCOCC4)cc3)cc2N(C(=O)OC(C)C)C[C@@H]1C [Example I-1061]	1 to 10	> 0.5	0.05 to 0.5

Further lines, results first:

IC50 [1] [µM]	IC50 [2] [µM]	IC50 [3] [µM]	Structure (SMILES)
0.1 to 1	0.1 to 0.5	0.05 to 0.5	COC(=O)N1c2ccc(-c3cnn(C4CC4)c3)cc2N(C(=O)OC2CCC2)C[C@@H]1C [Example I-1005]
0.1 to 1	0.1 to 0.5	< 0.05	CC(=O)N1c2ccc(-c3ccc(N4CCCS4(=O)=O)cc3)cc2N(C(=O)Oc2ccc(F)cc2F)C[C@@H]1C [Example I-1011]
0.1 to 1	0.1 to 0.5	< 0.05	CC(=O)N1c2ccc(-c3cnn(CCC#N)c3)cc2N(C(=O)Oc2ccc(F)cc2F)C[C@@H]1C [Example I-1012]
0.1 to 1	0.1 to 0.5	0.05 to 0.5	CC(=O)N1c2ccc(-c3ccc(NS(C)(=O)=O)cc3)cc2N(C(=O)Oc2ccc(F)cc2F)C[C@@H]1C [Example I-1013]
0.1 to 1	0.1 to 0.5	< 0.05	CC(=O)N1c2ccc(-c3cnn(C(C)(C)CO)c3)cc2N(C(=O)Oc2ccc(F)cc2F)C[C@@H]1C [Example I-1014]
0.1 to 1	0.1 to 0.5	0.05 to 0.5	CC(=O)N1c2ccc(-c3cnn(CCO)c3)cc2N(C(=O)Oc2ccc(F)cc2)C[C@@H]1C [Example I-1015]
< 0.1	0.1 to 0.5	< 0.05	CC(=O)N1c2ccc(-c3cnn(CCC#N)c3)cc2N(C(=O)Oc2ccc(F)cc2)C[C@@H]1C [Example I-1018]
0.1 to 1	0.1 to 0.5	< 0.05	CC(=O)N1c2ccc(-c3ccc(NS(C)(=O)=O)cc3)cc2N(C(=O)Oc2ccc(F)cc2)C[C@@H]1C [Example I-1019]
0.1 to 1	0.1 to 0.5	< 0.05	CC(=O)N1c2ccc(-c3cnn(C(C)(C)CO)c3)cc2N(C(=O)Oc2ccc(F)cc2)C[C@@H]1C [Example I-1020]
0.1 to 1	< 0.1	0.05 to 0.5	CC(=O)N1c2ccc(-c3ccc(N4CCCS4(=O)=O)cc3)cc2N(C(=O)Oc2ccc(F)cc2)C[C@@H]1C [Example I-1021]
0.1 to 1	> 0.5	< 0.05	COC(=O)N1c2ccc(-c3cnn(CC(C)(C)O)c3)cc2N(C(=O)Oc2ccc(F)cc2)C[C@@H]1C [Example I-1023]
0.1 to 1	0.1 to 0.5	< 0.05	COC(=O)N1c2ccc(-c3cnn(C(C)(C)CO)c3)cc2N(C(=O)Oc2ccc(F)cc2)C[C@@H]1C [Example I-1024]
0.1 to 1	> 0.5	< 0.05	COC(=O)N1c2ccc(-c3cnn(CCC#N)c3)cc2N(C(=O)Oc2ccc(F)cc2)C[C@@H]1C [Example I-1025]
0.1 to 1	0.1 to 0.5	0.05 to 0.5	CC(=O)N1c2ccc(-c3ccc4c(c3)CCN4S(C)(=O)=O)cc2N(C(=O)Oc2ccc(F)cc2)C[C@@H]1C [Example I-1026]
1 to 10	0.1 to 0.5	0.05 to 0.5	CCS(=O)(=O)c1ccc(-c2ccc3c(c2)N(C(=O)C2CC2)C[C@H](C)N3C(C)=O)cc1 [Example I-1027]
1 to 10	> 0.5	0.05 to 0.5	CCS(=O)(=O)c1ccc(-c2ccc3c(c2)N(C(=O)C2CCC2)C[C@H](C)N3C(C)=O)cc1 [Example I-1028]
1 to 10	0.1 to 0.5	0.05 to 0.5	CCOC(=O)N1C[C@H](C)N(C(C)=O)c2ccc(-c3ccc(S(=O)(=O)CC)cc3)cc21 [Example I-1029]
0.1 to 1	0.1 to 0.5	0.05 to 0.5	CCS(=O)(=O)c1ccc(-c2ccc3c(c2)N(C(=O)OC(C)C)C[C@H](C)N3C(C)=O)cc1 [Example I-1030]
1 to 10	0.1 to 0.5	0.05 to 0.5	CC(=O)N1c2ccc(-c3ccc(S(=O)(=O)C4CC4)cc3)cc2N(C(=O)C2CC2)C[C@@H]1C [Example I-1031]
1 to 10	0.1 to 0.5	0.05 to 0.5	CC(=O)N1c2ccc(-c3ccc(S(=O)(=O)C4CC4)cc3)cc2N(C(=O)C2CCC2)C[C@@H]1C [Example I-1032]
0.1 to 1	0.1 to 0.5	0.05 to 0.5	CCOC(=O)N1C[C@H](C)N(C(C)=O)c2ccc(-c3ccc(S(=O)(=O)C4CC4)cc3)cc21 [Example I-1033]
0.1 to 1	0.1 to 0.5	0.05 to 0.5	CC(=O)N1c2ccc(-c3ccc(S(=O)(=O)C4CC4)cc3)cc2N(C(=O)OC(C)C)C[C@@H]1C [Example I-1034]
1 to 10	> 0.5	0.05 to 0.5	CC(=O)N1c2ccc(-c3ccc(S(=O)(=O)NCCO)cc3)cc2N(C(=O)C2CC2)C[C@@H]1C [Example I-1035]
1 to 10	0.1 to 0.5	0.05 to 0.5	CC(=O)N1c2ccc(-c3ccc(S(=O)(=O)NCCO)cc3)cc2N(C(=O)C2CCC2)C[C@@H]1C [Example I-1036]
1 to 10	0.1 to 0.5	0.05 to 0.5	CCOC(=O)N1C[C@H](C)N(C(C)=O)c2ccc(-c3ccc(S(=O)(=O)NCCO)cc3)cc21 [Example I-1037]
0.1 to 1	0.1 to 0.5	0.05 to 0.5	CC(=O)N1c2ccc(-c3ccc(S(=O)(=O)NCCO)cc3)cc2N(C(=O)OC(C)C)C[C@@H]1C [Example I-1038]
0.1 to 1	0.1 to 0.5	0.05 to 0.5	CCS(=O)(=O)Nc1cccc(-c2ccc3c(c2)N(C(=O)OC(C)C)C[C@H](C)N3C(C)=O)c1 [Example I-1057]
